Reference: US12661338B2, “Heterocyclic compounds as modulators of beta-catenin / TCF4 interaction” (AGENCY FOR SCIENCE, TECHNOLOGY AND RESEARCH, priority 2019, dated 2026)
Like-named read-outs stand apart in the source and are kept apart here.

How the values were obtained:
CRC2440 = experiment: Viability of primary patient-derived colorectal cancer cell line; assay type: cell-based
HCT116 xenografts = experiment: Mouse xenograft and compound treatment; assay type: in vivo; settings: NSG mice, 50 mg/kg every other day i.p.
Method: HCT 116 cells (1×10^6 cells per site) and were implanted subcutaneously into the right flanks of 5-7 weeks old NSG (NOD scid gamma) (Jackson Laboratory, stock no. 005557) mice. When tumours reached a size of 60-100 mm^3 in volume, the animals were randomised to either the treatment or control group. Mice in the treatment group were administered with compound GB1874 at 50 mg/kg every other day via intraperitoneal injection. Simultaneously animals in the control group were administered with the diluent in the absence of compound. Compound GB1874 was prepared by dissolving it in DMSO to a concentration of 60 mg/mL and diluting it in 5% PEG 300, 5% Tween-80 in saline to a final concentration of 3 mg/mL, 5% DMSO. The length and width of tumours were measured by caliper once every 2 days. Tumour volumes were estimated using the following modified ellipsoidal formula: Tumour volume=½(length×width^2). Mice were euthanized when tumours in the control group reaches 2000 mm^3.

CRC1177 = experiment: Viability of primary patient-derived colorectal cancer cell line; assay type: cell-based
CRC2001 = experiment: as above; assay type: cell-based
CRC2423 = experiment: as above; assay type: cell-based
[1] = tested on: Wnt signalling (TOPFlash reporter, STF3A cells); experiment: Wnt STF3A TOPFlash reporter dose response (constitutive Wnt3A); assay type: cell-based
Method: Wnt STF reporter cells (HEK 293 cells stably transfected with TOPFlash reporter) and STF3A reporter cells (STF cells with constitutive secretion of Wnt3A) were kind gifts from David Virshup (Duke-NUS Graduate Medical School, Singapore). HCT116, DLD-1, and SW480 cell lines were obtained from ATCC. The Hippo pathway TEAD reporter (cat. #60618) and Myc signalling pathway reporter (cat. #60520) cells lines were purchased from BPS Bioscience, Inc.
(§1) The Wnt STF3A reporter cells were seeded as 20,000 cells in 100 μL culture medium per well in 96-well plates (Corning cat. #3903, Falcon cat. #353072). The next day, 5-fold dilutions of the compounds in DMSO were added to the cells at a final concentration of 1% DMSO. After 24 hr incubation, the viability of the cells was determined with cell counting kit-8 (CCK-8, Dojindo cat. #CK04) cell viability reagent according to the manufacturer's protocol while the TOPFlash reporter activity was determined with Steady-Glo luciferase reagent.
(§2) The average signal from DMSO treated wells was calculated for each plate, and the signal from each treatment well was normalized against the average DMSO signal from the respective plate. The normalized values were plotted against the concentrations tested using GraphPad Prism 5, and the EC50 values were determined through either three- or four-parameter nonlinear regression.

β-cat-ECAD interaction = experiment: Co-immunoprecipitation of β-cat and ECAD in HCT116 cells; assay type: cell-based; settings: 18 hr
Method: HCT116 cells were treated for 18 hr with compounds at the indicated concentrations. Cells were lysed on ice in lysis buffer containing 20 mM HEPES, pH 7.5, 137 mM NaCl, 1.5 mM MgCl2, 1 mM EGTA, 1 mM dithiothreitol (DTT), 1% Triton X-100, 10% glycerol, cOmplete protease inhibitor cocktail (Roche cat. #11697498001), and 1 mM Na3VO4. Each sample of cleared protein lysate was incubated overnight at 4° C. with 4 μg anti-β-cat antibody (Sigma cat. #C7207) followed by 1 hr incubation with a 50 μL slurry of Dynabeads Protein G (Invitrogen cat. #10004D) at 4° C. The beads were then washed three times with lysis buffer at 4° C., and the bound protein was eluted by heating the beads with 30 μL (per sample) of SDS sample buffer at 95° C. for 7 min. protein was resolved by SDS-PAGE and blotted onto PVDF membrane (Millipore cat. #IPVH00010). Primary antibodies were incubated overnight at 4° C. and the blots were detected with either IRDye 800CW goat anti-rabbit antibody (LI-COR cat. #926-32211) or IRDye 680RD goat anti-mouse antibody (LI-COR cat. #926-68070) at 1:5000 dilution. Signals were visualized with the LI-COR Odyssey CLx imaging system and bands were quantified using LI-COR Image Studio data analysis software. […]

STF cells = experiment: Viability (toxicity) of STF reporter cells, CCK-8; assay type: cell-based; settings: Table 3; STF reporter cell line
Method: as §1, with “STF” for “STF3A”, “DMSO. The cells were also stimulated with 500 ng/mL recombinant human Wnt3A (RnD systems, cat. #5036-WN-010).” for “DMSO.”
as §2

CRC948 = experiment: Viability of primary patient-derived colorectal cancer cell line; assay type: cell-based
CRC1414 = experiment: as above; assay type: cell-based
[2] = tested on: Myc reporter (Luc)-HCT116 cells; experiment: Myc signalling reporter dose response; assay type: cell-based; settings: Homo sapiens, HCT-116, 24 hr
Method: The Myc reporter (Luc)-HCT116 cells were seeded as 25,000 cells in 100 μL assay medium per well in 96-well plates (Corning cat. #3903, Falcon cat. #353072). The assay medium consists of the growth medium without G-418. The next day, 4-fold dilutions of the compounds in DMSO were added to the cells at a final concentration of 1% DMSO. After 24 hr incubation, the viability of the cells was determined with PrestoBlue cell viability reagent while the luciferase reporter activity was determined with Steady-Glo luciferase reagent.
as §2

CRC1850 = experiment: Viability of primary patient-derived colorectal cancer cell line; assay type: cell-based; settings: CRC1850, Liver Met
CRC1258 = experiment: as above; assay type: cell-based; settings: CRC1258, Liver Met
CRC2413 = experiment: as above; assay type: cell-based
CRC1707 = experiment: as above; assay type: cell-based

In the case of CCc1ccc(OCc2nnc(SC3CCCC3=O)n2C(C)c2ccccc2)cc1 (stereo not drawn) [GB1874], the EC50 (CRC2440) is reported as 16 µM, the “expression of cyclin D1 and Ki67 in xenograft tumours (IHC)” value (HCT116 xenografts) is reported as “reduction in the expression of Wnt target gene, cyclin D1, as well as the proliferation marker, Ki67” and the “systemic toxicity in the mice (body weight)” value (HCT116 xenografts; 2 weeks) is reported as “minimal systemic toxicity”. The “growth of HCT116 xenografts (tumour volume)” value (HCT116 xenografts; 2 weeks, 50 mg/kg) was “effectively inhibited the growth of HCT116 xenografts in vivo”, the EC50 (CRC1177) was 19 µM and the EC50 (CRC2001) was 25 µM. The EC50 (CRC2423) was 30 µM, the IC50 ([1]; Table 1, STF3A reporter cells, 24 hr, read-out: IC50 Wnt (STF3A)) was 26 µM and the IC50 ([1]; Table 3, STF3A reporter cell line, read-out: STF3A Inhibition IC50) was 27 µM. For the same molecule, the “β-cat-ECAD interaction (co-IP)” value (β-cat-ECAD interaction) was “minimal effect on the β-cat-ECAD interaction”, the IC50 (STF cells) was 66 µM and the EC50 (CRC948) was 17 µM. For the same molecule, the EC50 (CRC1414) was 42 µM, the IC50 [2] was 32 µM and the EC50 (CRC1850) was 37 µM. For the same molecule, the EC50 (CRC1258) was 27 µM, the EC50 (CRC2413) was 16 µM and the EC50 (CRC1707) was 19 µM.
